Results taken from patent US11285226B2, “Aryl ethene derivative and pharmaceutical composition containing same as active ingredient” (priority 2016, dated 2022).
Like-named read-outs stand apart in the source and are kept apart here.

Columns and labels:
ERRγ = format: cell-based; settings: for Functional Assay, Cpds/Ref 5182: activity relative to reference compound GSK5182; for Functional Assay at 10 μM (% of control), Cpds: AD293, 24 hours
Description: AD293 was cultured in a 24-well plate for 24 hours, using a DMEM High glucose culture medium (Hyclone, USA) to which 0.5% FBS was added at a concentration of 9×10^4/well. The culture medium was replaced with a DMEM High glucose culture medium to which 10% FBS was added, treatment was performed with a mixture of a TransIT-LT1 transfection reagent (Minis, USA) and pCMX-Gal4-ERRγ, pFR-luciferase reporter plasmid, pCMV-β-gal, and culturing was performed for 24 hours. Thereafter, a luciferase activity assay and a β-gal assay were performed, respectively, with a lysate obtained after treatment with the arylethene derivative of the present invention for 24 hours. All results were derived from three or more independent repetitive experiments.

[1] = format: in vitro ADME, rat; settings: 1 μM, 30 minutes, 37° C.
Description: 2) Microsomal Stability Evaluation
(§2) Four liver microsomes (Human, Dog, Rat, Mouse 0.5 mg/ml) with a 0.1 M phosphate buffer solution (pH 7.4), and the arylethene derivative of the present invention were added to a concentration of 1 μM, culturing was performed at 37° C. for 5 minutes in advance, a NADPH regeneration system solution was added thereto, and culturing was performed at 37° C. for 30 minutes. Thereafter, in order to complete the reaction, an acetonitrile solution containing an internal standard material (chlorpropamide) was added thereto, centrifugation (14,000 rpm, 4° C.) was performed for 5 minutes, and a supernatant was injected into a LC-MS/MS system to analyze the substrate drug, thereby evaluating metabolism stability to the arylethene derivative of the present invention.

CYP1A2 = CYP1A2 (Homo sapiens (Human), UniProt P05177); assay: Cytochrome P450 activity inhibition, CYP1A2; format: in vitro ADME; settings: 10 μM, human liver microsomes
Description: (§1) 1) Cytochrome P450 (CYP450) Activity Inhibition Evaluation

CYP2C19 = CYP2C19 (Homo sapiens (Human), UniProt P33261); assay: Cytochrome P450 activity inhibition, CYP2C19; format: in vitro ADME; settings: 10 μM, human liver microsomes
Description: as §1

[2] = format: in vitro ADME, dog; settings: 1 μM, 30 minutes, 37° C.
Description: 2) Microsomal Stability Evaluation
as §2

[3] = format: in vitro ADME, human; settings: 1 μM, 30 minutes, 37° C.
Description: 2) Microsomal Stability Evaluation
as §2

ERR alpha LBD = ERR alpha LBD (Homo sapiens (Human), UniProt P11474); settings: read-out: Binding Assay, IC50 ERRα
Description: (§3) The arylethene derivative of the present invention was sequentially added to a 384 well plate from a concentration of 10 μM to a final concentration of two-fold dilution. […] After all reagents were added, a reaction was carried out with gentle shaking at 20° C. for 1 hour, and after the reaction, a binding activity was measured by a TR-FRET method.

CYP2C9 = CYP2C9 (Homo sapiens (Human), UniProt P11712); assay: Cytochrome P450 activity inhibition, CYP2C9; format: in vitro ADME; settings: 10 μM, human liver microsomes
Description: as §1

CYP2D6 = CYP2D6 (Homo sapiens (Human), UniProt P10635); assay: Cytochrome P450 activity inhibition, CYP2D6; format: in vitro ADME; settings: 10 μM, human liver microsomes
Description: as §1

CYP3A4 = CYP3A4 (Homo sapiens (Human), UniProt P08684); assay: Cytochrome P450 activity inhibition, CYP3A4; format: in vitro ADME; settings: 10 μM, human liver microsomes
Description: Thereafter, in order to complete the reaction, an acetonitrile solution containing an internal standard material (Terfenadine) was added thereto, centrifugation (14,000 rpm, 4° C.) was performed for 5 minutes, and a supernatant was injected into a LC-MS/MS system to analyze the metabolites of the substrate drug, thereby evaluating drug metabolism enzyme inhibition by the arylethene derivative of the present invention.

[4] = format: in vitro ADME, mouse; settings: 1 μM, 30 minutes, 37° C.
Description: 2) Microsomal Stability Evaluation
as §2

[5] = format: in vivo; settings: rat; for BA: PO 10 mg/kg vs IV 1 mg/kg
Description: An oral administration group fasts the day before.
Blood of each animal is collected at 0 hour.
Into a tail vein of an intravenous administration group (IV), a drug is injected at a dose of 1 mg/kg (syringe).
To an oral administration group (PO), a drug is orally administered at a dose of 10 mg/kg (oral zondec)
After administration, blood of the intravenous administration group was collected through a jugular vein 8 times at 0.08, 0.25, 0.5, 1, 2, 4, 6, and 8 hours. One collected blood amount is 400 to 500 ul.
After administration, blood of the oral administration group was collected through a jugular vein 6 times at 0.25, 0.5, 1, 4, 6 and 8 hours. One collected blood amount is 400 to 500 ul.
Supernatant plasma is collected by a centrifuge.
The supernatant plasma was injected into a LC-MS/MS system and the drug is analyzed.

[6] = target: ER alpha ligand-binding domain (LBD) (Homo sapiens (Human), UniProt P03372); settings: beta-estradiol 4 nM as agonist; read-out: Binding Assay, IC50 ERα
Description: as §3

[7] = format: in vitro ADME; settings: PBS pH 7.4, 25° C., 5 hours
Description: 3) Parallel Artificial Membrane Permeability Assay (PAMPA) Evaluation
PAMPA is a method which has been developed for testing cell membrane permeability of a material in a test tube, and has been performed using a lipid tri-layer PVDF membrane available from Corning Gentest (NY, US), the used reagents were all purchased from Sigma (MO, US). First, a test material is diluted in PBS (pH 7.4) to a final concentration of 10 mM, 300 mL of the solution is added to the bottom well of a 96-transwell equipped with a PVDF membrane, and 200 mL of PBS is added to the upper well. Then, a plate is reacted at 25° C. for 5 hours, 20 mL of the solution in each well is transferred to a new container, and 80 mL of acetonitrile containing an internal standard material (4 mM chloropropamide) is added thereto. A concentration of the material in the solution is analyzed using LC-MS/MS (ThermoFisher Scientific, MO, US), and the transmittance of the material is calculated according to the equation reported in the reference document. • Reference document: A novel design of artificial membrane for improving the PAMPA model.

CAL-62 cells = assay: 125I uptake assay in anaplastic thyroid cancer cells; format: cell-based; settings: co-incubated with compound 18a-treated CAL62 cells

ERR alpha LBD, sequence (P11474 193-421, species assumed): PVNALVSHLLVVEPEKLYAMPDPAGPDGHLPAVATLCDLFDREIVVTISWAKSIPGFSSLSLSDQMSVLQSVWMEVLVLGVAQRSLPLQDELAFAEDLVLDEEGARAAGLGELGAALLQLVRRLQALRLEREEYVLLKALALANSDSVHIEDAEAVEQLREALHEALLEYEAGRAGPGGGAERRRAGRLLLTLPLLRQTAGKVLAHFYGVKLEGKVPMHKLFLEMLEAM
CYP2C19, sequence (P33261 whole entry): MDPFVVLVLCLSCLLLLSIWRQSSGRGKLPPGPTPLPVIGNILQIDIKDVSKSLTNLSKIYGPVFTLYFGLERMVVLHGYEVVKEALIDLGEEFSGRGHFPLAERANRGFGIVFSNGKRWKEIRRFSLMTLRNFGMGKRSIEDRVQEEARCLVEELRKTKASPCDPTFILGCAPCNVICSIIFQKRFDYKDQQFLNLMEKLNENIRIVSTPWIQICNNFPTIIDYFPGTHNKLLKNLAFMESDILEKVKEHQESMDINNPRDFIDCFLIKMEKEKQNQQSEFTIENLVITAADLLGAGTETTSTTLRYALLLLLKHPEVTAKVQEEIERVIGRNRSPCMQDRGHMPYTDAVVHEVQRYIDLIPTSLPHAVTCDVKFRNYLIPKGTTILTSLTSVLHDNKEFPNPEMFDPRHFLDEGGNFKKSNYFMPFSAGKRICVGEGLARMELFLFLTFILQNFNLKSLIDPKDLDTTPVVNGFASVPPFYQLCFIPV
CYP1A2, sequence (P05177 whole entry): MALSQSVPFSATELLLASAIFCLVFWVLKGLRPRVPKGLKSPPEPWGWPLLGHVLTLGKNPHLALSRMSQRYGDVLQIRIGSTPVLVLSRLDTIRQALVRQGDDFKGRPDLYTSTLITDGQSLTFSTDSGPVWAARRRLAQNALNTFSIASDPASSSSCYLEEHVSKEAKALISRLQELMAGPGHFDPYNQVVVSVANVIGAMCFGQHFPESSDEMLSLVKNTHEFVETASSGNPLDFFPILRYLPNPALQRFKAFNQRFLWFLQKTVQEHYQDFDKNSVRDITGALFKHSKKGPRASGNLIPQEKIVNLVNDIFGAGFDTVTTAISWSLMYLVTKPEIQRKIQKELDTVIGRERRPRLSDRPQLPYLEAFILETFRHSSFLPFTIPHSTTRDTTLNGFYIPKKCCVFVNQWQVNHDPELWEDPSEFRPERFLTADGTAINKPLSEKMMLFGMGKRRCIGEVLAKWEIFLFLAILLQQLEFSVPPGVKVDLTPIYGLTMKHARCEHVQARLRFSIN
CYP3A4, sequence (P08684 whole entry): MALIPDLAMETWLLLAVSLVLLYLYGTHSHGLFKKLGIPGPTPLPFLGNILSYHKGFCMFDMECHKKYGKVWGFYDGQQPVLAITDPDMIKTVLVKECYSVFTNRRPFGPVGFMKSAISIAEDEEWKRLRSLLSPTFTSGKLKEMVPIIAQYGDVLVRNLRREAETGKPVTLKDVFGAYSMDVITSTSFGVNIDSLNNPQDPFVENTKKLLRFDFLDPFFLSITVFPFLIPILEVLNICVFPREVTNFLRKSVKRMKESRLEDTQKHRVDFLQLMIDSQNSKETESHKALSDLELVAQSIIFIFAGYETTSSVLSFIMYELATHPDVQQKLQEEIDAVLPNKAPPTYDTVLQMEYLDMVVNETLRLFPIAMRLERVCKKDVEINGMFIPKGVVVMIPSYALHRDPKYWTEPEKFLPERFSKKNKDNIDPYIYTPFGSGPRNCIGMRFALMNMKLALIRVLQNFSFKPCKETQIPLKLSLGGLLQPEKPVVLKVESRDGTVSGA
CYP2C9, sequence (P11712 whole entry): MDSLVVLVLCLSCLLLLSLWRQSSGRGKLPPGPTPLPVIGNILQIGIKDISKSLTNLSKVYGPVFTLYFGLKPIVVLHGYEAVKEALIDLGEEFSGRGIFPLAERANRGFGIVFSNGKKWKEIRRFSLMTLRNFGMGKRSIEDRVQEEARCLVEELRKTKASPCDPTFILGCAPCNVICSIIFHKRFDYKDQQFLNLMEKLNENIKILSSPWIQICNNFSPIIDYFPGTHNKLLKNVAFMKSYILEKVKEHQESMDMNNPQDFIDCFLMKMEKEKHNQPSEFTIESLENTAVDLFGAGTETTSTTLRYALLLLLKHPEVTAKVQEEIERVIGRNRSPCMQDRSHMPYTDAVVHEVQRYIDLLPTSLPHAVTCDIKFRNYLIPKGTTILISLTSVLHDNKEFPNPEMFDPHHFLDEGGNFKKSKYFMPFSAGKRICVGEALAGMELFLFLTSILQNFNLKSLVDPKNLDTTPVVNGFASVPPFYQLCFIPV
CYP2D6, sequence (P10635 whole entry): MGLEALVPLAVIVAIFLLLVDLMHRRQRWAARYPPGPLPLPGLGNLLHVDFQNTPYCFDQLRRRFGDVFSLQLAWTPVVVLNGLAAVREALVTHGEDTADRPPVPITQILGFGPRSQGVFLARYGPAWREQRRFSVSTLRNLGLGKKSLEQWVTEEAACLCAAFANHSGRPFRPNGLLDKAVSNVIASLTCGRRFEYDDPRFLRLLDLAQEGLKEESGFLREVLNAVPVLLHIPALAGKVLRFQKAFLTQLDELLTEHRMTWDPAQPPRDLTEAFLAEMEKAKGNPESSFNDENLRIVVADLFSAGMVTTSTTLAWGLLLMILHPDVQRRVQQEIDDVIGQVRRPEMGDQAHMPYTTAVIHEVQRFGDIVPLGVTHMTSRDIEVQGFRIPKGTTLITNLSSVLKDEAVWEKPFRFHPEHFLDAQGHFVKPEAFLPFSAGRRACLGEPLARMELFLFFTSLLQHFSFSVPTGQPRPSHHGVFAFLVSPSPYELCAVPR
ER alpha ligand-binding domain (LBD), sequence (P03372 whole entry, looked up, the tested form may be a part): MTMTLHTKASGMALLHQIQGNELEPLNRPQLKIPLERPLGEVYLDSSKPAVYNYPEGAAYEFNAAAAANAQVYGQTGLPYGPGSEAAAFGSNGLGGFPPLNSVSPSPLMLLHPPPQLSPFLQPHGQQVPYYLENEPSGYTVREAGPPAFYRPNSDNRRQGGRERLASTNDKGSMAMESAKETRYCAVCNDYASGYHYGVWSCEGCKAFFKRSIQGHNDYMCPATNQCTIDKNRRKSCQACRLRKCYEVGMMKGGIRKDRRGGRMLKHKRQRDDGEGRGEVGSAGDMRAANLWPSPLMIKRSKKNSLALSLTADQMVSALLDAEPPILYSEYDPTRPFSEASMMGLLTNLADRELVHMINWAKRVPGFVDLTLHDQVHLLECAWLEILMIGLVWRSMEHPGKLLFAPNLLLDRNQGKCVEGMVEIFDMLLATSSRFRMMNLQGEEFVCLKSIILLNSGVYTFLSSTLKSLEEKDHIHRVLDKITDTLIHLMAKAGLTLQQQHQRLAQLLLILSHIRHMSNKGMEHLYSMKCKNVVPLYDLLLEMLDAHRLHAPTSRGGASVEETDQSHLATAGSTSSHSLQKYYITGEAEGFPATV

OCCC/C(=C(\c1ccc(O)cc1)c1ccc(OCCN2C[C@H]3CNC[C@H]3C2)cc1)c1ccccc1 [Compound 40, 4-((Z)-1-(4-(2-((3aR,6aS)-hexahydropyrrolo[3,4-c]pyrrol-2(1H)-yl)ethoxy)phenyl)-5-hydroxy-2-phenylpent-1-en-1-yl)phenol]
Functional Assay, Cpds/Ref 5182 (ERRγ): 0.96
MS (Microsomal Stability) (%) rat [1]: 72.0%

CC(C)N1CCC(c2ccc(/C(=C(/CCCO)c3ccccc3)c3cccc(O)c3)cc2)CC1 [Compound 22m]
CYP inhibition (% of control) 1A2 (CYP1A2): 97 % of control
CYP inhibition (% of control) 2C19 (CYP2C19): >100 % of control
MS (Microsomal Stability) (%) dog [2]: 55.0%

Cc1ccc(/C(=C(\CCCO)c2ccccc2)c2ccc(C3CNC3)cc2)cc1 [Compound 20d]
Functional Assay, Cpds/Ref 5182 (ERRγ): 0.81
MS (Microsomal Stability) (%) human [3]: 83%
MS (Microsomal Stability) (%) rat [1]: 54%

OCCC/C(=C(\c1ccc(O)cc1)c1ccc(OCCN2C[C@H]3C[C@H]3[C@H]2CO)cc1)c1ccccc1 [Compound 38d]
IC50 (ERR alpha LBD): > 10 µM
Functional Assay, Cpds/Ref 5182 (ERRγ): 0.77
CYP inhibition (% of control) 1A2 (CYP1A2): 79.2 % of control
CYP inhibition (% of control) 2C9 (CYP2C9): 55.3 % of control
CYP inhibition (% of control) 2C19 (CYP2C19): 58.8 % of control
CYP inhibition (% of control) 2D6 (CYP2D6): 54.3 % of control
CYP inhibition (% of control) 3A4 (CYP3A4): 57.6 % of control
MS (Microsomal Stability) (%) human [3]: 6.9%
MS (Microsomal Stability) (%) rat [1]: 11.7%
MS (Microsomal Stability) (%) mouse [4]: 11.8%

CC(C)N1CCN(c2ccc(/C(=C(/CCCO)c3ccccc3)c3ccc(Br)cc3)cc2)CC1 [Compound 18h]
MS (Microsomal Stability) (%) human [3]: >100%

OCCC/C(=C(\c1ccc(O)cc1)c1ccc(N2CCN(C3CCCC3)CC2)cc1)c1ccccc1 [Compound 22n]
CYP inhibition (% of control) 1A2 (CYP1A2): 99 % of control
CYP inhibition (% of control) 2C19 (CYP2C19): 83 % of control
MS (Microsomal Stability) (%) dog [2]: 72.0%

O=C(CN1CCCCC1)Nc1ccc(/C(=C(/CCCO)c2ccccc2)c2ccc(O)cc2)cc1 [Compound 44, (E)-N-(4-(5-hydroxy-1-(4-hydroxyphenyl)-2-phenylpent-1-en-1-yl)phenyl)-2-(piperidin-1-yl)acetamide]
AUCINF ([5]; IV 1 mg/kg): 0.34 μMh
AUCall ([5]; IV 1 mg/kg): 0.28 μMh
Cl(observed)/F ([5]; IV 1 mg/kg): 139 mL/min/kg
Vss ([5]; IV 1 mg/kg): 52.8 L/kg
t1/2 ([5]; IV 1 mg/kg): 4.4 h

CC(C)N1CCN(c2ccc(/C(=C(/CCCO)c3ccccc3)c3ccc(NS(C)(=O)=O)cc3)cc2)CC1 [Compound 27a, (E)-N-(4-(5-hydroxy-1-(4-(4-isopropylpiperazin-1-yl)phenyl)-2-phenylpent-1-en-1-yl)phenyl)methanesulfonamide]
MS (Microsomal Stability) (%) rat [1]: 65.0%

OCCC/C(=C(\c1ccc(O)cc1)c1ccc(C2CCN(C3CC3)CC2)cc1)c1ccccc1 [Compound 22i]
MS (Microsomal Stability) (%) human [3]: 36.0%

CN1CCN(c2ccc(/C(=C(/CCCO)c3ccccc3)c3ccc(Br)cc3)cc2)CC1 [Compound 18e]
IC50 (ERR alpha LBD): > 10 µM
IC50 [6]: > 10 µM
Functional Assay at 10 μM (% of control), Cpds (ERRγ): 2.6 % of control
Functional Assay, Cpds/Ref 5182 (ERRγ): 0.89
CYP inhibition (% of control) 1A2 (CYP1A2): >100 % of control
CYP inhibition (% of control) 2C9 (CYP2C9): 91.3 % of control
CYP inhibition (% of control) 2C19 (CYP2C19): 84.6 % of control
CYP inhibition (% of control) 2D6 (CYP2D6): >100 % of control
CYP inhibition (% of control) 3A4 (CYP3A4): 84 % of control
Permeability Pampa [7]: 1.11 10^−6 cm/s
AUCINF ([5]; IV 1 mg/kg): 0.06 μMh
AUCall ([5]; IV 1 mg/kg): 0.06 μMh
Vss ([5]; IV 1 mg/kg): 39.1 L/kg
t1/2 ([5]; IV 1 mg/kg): 0.8 h
AUCINF ([5]; PO 10 mg/kg): 0.09 μMh
AUCall ([5]; PO 10 mg/kg): 0.07 μMh
Cmax ([5]; PO 10 mg/kg): 10 nM
Tmax ([5]; PO 10 mg/kg): 2.8 h
BA [5]: 11.5%

CC(C)N1CCC(c2ccc(/C(=C(/CCCO)c3ccccc3)c3cccc(O)c3)cc2)C1 (racemic) [Compound 22u]
MS (Microsomal Stability) (%) human [3]: 40.0%
MS (Microsomal Stability) (%) dog [2]: 10.0%

[K+].[O-][Cl+3]([O-])([O-])[O-] [KClO4, reference compound]
block of radioactive iodine uptake increased in compound 18a-treated cells (CAL-62 cells): completely blocks

CC(C)N1CCC(c2ccc(/C(=C(/CCCO)c3ccccc3)c3ccc(O)cc3)cc2)CC1 [Compound 22k]
Functional Assay at 10 μM (% of control), Cpds (ERRγ): 0.77 % of control
Functional Assay, Cpds/Ref 5182 (ERRγ): 0.83
CYP inhibition (% of control) 1A2 (CYP1A2): >100 % of control
CYP inhibition (% of control) 2C9 (CYP2C9): 97 % of control
CYP inhibition (% of control) 2C19 (CYP2C19): >100 % of control
MS (Microsomal Stability) (%) rat [1]: 69.0%

OCCC/C(=C(/c1ccc(C2CCN(C3CC3)CC2)cc1)c1cccc(O)c1)c1ccccc1 [Compound 22r]
CYP inhibition (% of control) 1A2 (CYP1A2): >100 % of control
CYP inhibition (% of control) 2C9 (CYP2C9): >100 % of control
CYP inhibition (% of control) 2C19 (CYP2C19): >100 % of control
MS (Microsomal Stability) (%) human [3]: 62.0%

Nc1ccc(/C(=C(\CCCO)c2ccccc2)c2ccc(C3CCN(C4CC4)CC3)cc2)cc1 [Compound 26d]
CYP inhibition (% of control) 1A2 (CYP1A2): >100 % of control
CYP inhibition (% of control) 2C19 (CYP2C19): >100 % of control
Permeability Pampa [7]: 1.04 10^−6 cm/s

CCN1CCN(c2ccc(/C(=C(/CCCO)c3ccccc3)c3ccc(C)cc3)cc2)CC1 [Compound 18j]
CYP inhibition (% of control) 1A2 (CYP1A2): >100 % of control
CYP inhibition (% of control) 2C9 (CYP2C9): 87 % of control
CYP inhibition (% of control) 2C19 (CYP2C19): 74 % of control
MS (Microsomal Stability) (%) dog [2]: 58.0%

Cc1ccc(/C(=C(\CCCO)c2ccccc2)c2ccc(N3CCNCC3)cc2)cc1 [Compound 20b]
Functional Assay, Cpds/Ref 5182 (ERRγ): 0.88
MS (Microsomal Stability) (%) human [3]: 44%
MS (Microsomal Stability) (%) dog [2]: 58%

Cl.Cl.OCCC/C(=C(\c1ccc(O)cc1)c1ccc(OCCN2CCNCC2)cc1)c1ccccc1 [Compound 7a, (Z)-4-(5-hydroxy-2-phenyl-1-(4-(2-(piperazin-1-yl)ethoxy)phenyl)pent-1-en-1-yl)phenol 2hydrochloride Salt]
Functional Assay, Cpds/Ref 5182 (ERRγ): 0.86
MS (Microsomal Stability) (%) human [3]: 49.0%

CN1CCC[C@H]1COc1ccc(/C(=C(/CCCO)c2ccccc2)c2ccc(O)cc2)cc1 [Compound 6h]
IC50 (ERR alpha LBD): > 10 µM
CYP inhibition (% of control) 1A2 (CYP1A2): 103 % of control
CYP inhibition (% of control) 2C9 (CYP2C9): 62.8 % of control
CYP inhibition (% of control) 2C19 (CYP2C19): 83.2 % of control
CYP inhibition (% of control) 2D6 (CYP2D6): 90.7 % of control
CYP inhibition (% of control) 3A4 (CYP3A4): 75.4 % of control

C[Si](C)(CN1CCCCC1)c1ccc(/C(=C(/CCCO)c2ccccc2)c2ccc(O)cc2)cc1 [Compound 42b]
Permeability Pampa [7]: 0.1 10^−6 cm/s

CN1CCN(c2ccc(/C(=C(/CCCO)c3ccccc3)c3ccc(N)cc3)cc2)CC1 [Compound 26a, (Z)-5-(4-aminophenyl)-5-(4-(4-methylpiperazin-1-yl)phenyl)-4-phenylpent-4-en-1-ol]
Functional Assay, Cpds/Ref 5182 (ERRγ): 0.84
CYP inhibition (% of control) 1A2 (CYP1A2): >100 % of control
CYP inhibition (% of control) 2C9 (CYP2C9): 53.2 % of control
CYP inhibition (% of control) 2C19 (CYP2C19): 89 % of control
CYP inhibition (% of control) 2D6 (CYP2D6): 85.5 % of control
CYP inhibition (% of control) 3A4 (CYP3A4): 75.4 % of control

Cc1ccc(/C(=C(\CCCO)c2ccccc2)c2ccc(C3CCN(C)CC3)cc2)cc1 [Compound 22f]
MS (Microsomal Stability) (%) human [3]: 97.0%
MS (Microsomal Stability) (%) rat [1]: 80.0%

Cc1ccc(/C(=C(\CCCO)c2ccccc2)c2ccc(N3CCN(C(C)C)CC3)cc2)cc1 [Compound 18b]
Functional Assay, Cpds/Ref 5182 (ERRγ): 0.78
CYP inhibition (% of control) 3A4 (CYP3A4): 53 % of control
MS (Microsomal Stability) (%) rat [1]: 40.0%
BA [5]: 8.7%

Cc1ccc(/C(=C(\CCCO)c2ccccc2)c2ccc(C3CCNCC3)cc2)cc1 [Compound 20k]
MS (Microsomal Stability) (%) rat [1]: 89.0%
